In brackets after ≈: the same amount, converted by molar mass.
Experiments:
[1] = system: E. coli spontaneous mutants; assay: Broth microdilution MIC of spontaneous mutants; type: cell-based, Escherichia coli
Method: (§1) Select isolates were subcultured onto agar containing drug at the selection concentration, were identified by MALDI, and were frozen for broth microdilution MIC testing as described below.
(§2) To determine whether colonies growing on drug selection plates had elevated MIC values to the selecting antibiotic, susceptibility testing by broth microdilution was conducted on isolated mutants following methodology recommended by CLSI (1), (2), and (3) “Performance Standards for Antimicrobial Susceptibility Testing; Twenty-Eighth Informational Supplement.,” CLSI document M100-S28, 2018.
(§3) All wells in columns 2 through 12 of a standard 96-well microdilution plate (Costar 3795) were filled with 150 μL of the appropriate diluent. Then, 300 μL of the test agents were added to the wells of column 1 of the plates at […] the highest final concentration to be tested. Serial two-fold dilutions were made across the rows through column 11 using the Biomek 2000. The wells of column 12 contained no drug and served as the growth control wells. This plate served as the “mother plate” from which selected MIC assay plates or “daughter plates” were made.
(§4) 2 μL of drug solution from each well of a mother plate was added to each corresponding well of the daughter plate in a single step. A standardized inoculum of each aerobic test organism was prepared per CLSI methods to equal a 0.5 McFarland standard, followed by a dilution of 1:20 in MHB II. The plates were then inoculated with 10 μL of the diluted inoculum using the Biomek 2000 from low to high drug concentration, resulting in a final concentration of approximately 5×10^5 CFU/mL. An un-inoculated plate was incubated for the purpose of assessing solubility of the drug in the test media.
(§5) The plates for the aerobic tests were stacked 3-4 high, covered with a sterile lid on the top plate, and incubated aerobically at 35° C. for 18-20 hr. The MIC was recorded as the lowest concentration of drug that inhibited visible growth of the organism.

[2] = system: Streptococcus spp. spontaneous mutants; assay: organism not typed; type: cell-based
Method: as §1, §2, §3, §4, §5

[3] = system: Bacteroides spp. spontaneous mutants; assay: Broth microdilution MIC of spontaneous mutants; type: cell-based
Method: as §1, §2, §3
Daughter plates for anaerobic organisms were transferred to a Bactron II anaerobic chamber (Sheldon Manufacturing Inc., Cornelius, Oreg.) to reduce for 1 hour prior to inoculation. The inoculum for each organism was prepared in the anaerobic chamber and dispensed into sterile disposable reservoirs. Inoculation was completed using a multichannel pipette to transfer 10 μL of the inoculum into each well of the daughter plate. This yielded a final cell concentration in the daughter plates of approximately 1×10^6 CFU/mL.

COc1c(N2C[C@@H]3CCCN[C@@H]3C2)c(F)cc2c(=O)c(C(=O)O)cn(C3CC3)c12 [MOX]
MIC ([1]; E. coli ATCC 25922, selected on rifaximin 4X MIC, Colony A): 0.015 µg/mL | MIC ([1]; E. coli ATCC 25922, selected on rifaximin 4X MIC, Colony B): 0.015 µg/mL | MIC ([1]; E. coli ATCC 25922, selected on rifaximin 8X MIC, Colony A): 0.015 µg/mL | MIC ([1]; E. coli ATCC 25922, selected on rifaximin 8X MIC, Colony B): 0.015 µg/mL | MIC ([1]; E. coli ATCC 25922 Parent (Table 52)): 0.03 µg/mL | MIC ([1]; E. coli ATCC 35218, selected on rifaximin 4X MIC, Colony A): 0.03 µg/mL | MIC ([1]; E. coli ATCC 35218, selected on rifaximin 4X MIC, Colony B): 0.03 µg/mL | MIC ([1]; E. coli ATCC 35218, selected on rifaximin 8X MIC, Colony A): 0.03 µg/mL | MIC ([1]; E. coli ATCC 35218, selected on rifaximin 8X MIC, Colony B): 0.03 µg/mL | MIC ([1]; E. coli ATCC 35218 Parent (Table 52)): 0.03 µg/mL | MIC ([1]; E. coli MMX 1312, selected on ceftriaxone 4X MIC, Colony A): 0.03 µg/mL | MIC ([1]; E. coli MMX 1312, selected on ceftriaxone 4X MIC, Colony B): 0.06 µg/mL | MIC ([1]; E. coli MMX 1312, selected on ceftriaxone 4X MIC, Colony C): 0.03 µg/mL | MIC ([1]; E. coli MMX 1312, selected on ceftriaxone 8X MIC, Colony A): 0.03 µg/mL | MIC ([1]; E. coli MMX 1312, selected on ceftriaxone 8X MIC, Colony B): 0.03 µg/mL | MIC ([1]; E. coli MMX 1312, selected on ceftriaxone 8X MIC, Colony C): 0.03 µg/mL | MIC ([1]; E. coli MMX 1312, selected on rifaximin 4X MIC, Colony A): 0.03 µg/mL | MIC ([1]; E. coli MMX 1312, selected on rifaximin 4X MIC, Colony B): 0.03 µg/mL | MIC ([1]; E. coli MMX 1312, selected on rifaximin 8X MIC, Colony A): 0.03 µg/mL | MIC ([1]; E. coli MMX 1312, selected on rifaximin 8X MIC, Colony B): 0.03 µg/mL | MIC ([1]; E. coli MMX 1312 Parent): 0.03 µg/mL | MIC ([1]; E. coli MMX 1312 Parent (Table 49)): 0.03 µg/mL | MIC ([1]; E. coli MMX 1312 Parent (Table 52)): 0.03 µg/mL | MIC ([1]; E. coli MMX 1312 mutant selected on meropenem 4X MIC, colony A): 0.03 µg/mL | MIC ([1]; E. coli MMX 1312 mutant selected on meropenem 4X MIC, colony B): 0.03 µg/mL | MIC ([1]; E. coli MMX 1312 mutant selected on meropenem 4X MIC, colony C): 0.03 µg/mL | MIC ([1]; E. coli MMX 1312 mutant selected on meropenem 8X MIC, colony A): 0.03 µg/mL | MIC ([1]; E. coli MMX 1312 mutant selected on meropenem 8X MIC, colony B): 0.03 µg/mL | MIC ([1]; E. coli MMX 1312 mutant selected on meropenem 8X MIC, colony C): 0.03 µg/mL | MIC ([2]; S. agaloctiae ATCC 13813, selected on rifaximin 4X MIC, Colony A): 0.06 µg/mL (≈ 0.149 µM) | MIC ([2]; S. agaloctiae ATCC 13813, selected on rifaximin 4X MIC, Colony B): 0.06 µg/mL (≈ 0.149 µM) | MIC ([2]; S. agaloctiae ATCC 13813, selected on rifaximin 8X MIC, Colony A): 0.06 µg/mL (≈ 0.149 µM) | MIC ([2]; S. agaloctiae ATCC 13813, selected on rifaximin 8X MIC, Colony B): 0.03 µg/mL (≈ 0.0747 µM) | MIC ([2]; S. agaloctiae ATCC 13813 Parent): 0.06 µg/mL (≈ 0.149 µM) | MIC ([2]; S. pneumoniae ATCC 49619, selected on rifaximin 4X MIC, Colony A): 0.06 µg/mL (≈ 0.149 µM) | MIC ([2]; S. pneumoniae ATCC 49619, selected on rifaximin 4X MIC, Colony B): 0.06 µg/mL (≈ 0.149 µM) | MIC ([2]; S. pneumoniae ATCC 49619, selected on rifaximin 8X MIC, Colony A): 0.06 µg/mL (≈ 0.149 µM) | MIC ([2]; S. pneumoniae ATCC 49619, selected on rifaximin 8X MIC, Colony B): 0.06 µg/mL (≈ 0.149 µM) | MIC ([2]; S. pneumoniae ATCC 49619 Parent): 0.12 µg/mL (≈ 0.299 µM) | MIC ([2]; S. pyogenes ATCC 49399, selected on rifaximin 4X MIC, Colony A): 0.06 µg/mL (≈ 0.149 µM) | MIC ([2]; S. pyogenes ATCC 49399, selected on rifaximin 4X MIC, Colony B): 0.06 µg/mL (≈ 0.149 µM) | MIC ([2]; S. pyogenes ATCC 49399, selected on rifaximin 8X MIC, Colony A): 0.06 µg/mL (≈ 0.149 µM) | MIC ([2]; S. pyogenes ATCC 49399, selected on rifaximin 8X MIC, Colony B): 0.06 µg/mL (≈ 0.149 µM) | MIC ([2]; S. pyogenes ATCC 49399 Parent): 0.06 µg/mL (≈ 0.149 µM) | MIC ([3]; B. fragilis ATCC 25285, selected on rifaximin 4X MIC, Colony A): 0.06 µg/mL | MIC ([3]; B. fragilis ATCC 25285, selected on rifaximin 4X MIC, Colony B): 0.12 µg/mL | MIC ([3]; B. fragilis ATCC 25285, selected on rifaximin 8X MIC, Colony A): 0.12 µg/mL | MIC ([3]; B. fragilis ATCC 25285, selected on rifaximin 8X MIC, Colony B): 0.12 µg/mL | MIC ([3]; B. fragilis ATCC 25285 Parent): 0.06 µg/mL | MIC ([3]; B. ovatus MMX 3503, selected on rifaximin 4X MIC, Colony A): 2 µg/mL | MIC ([3]; B. ovatus MMX 3503, selected on rifaximin 4X MIC, Colony B): 0.5 µg/mL | MIC ([3]; B. ovatus MMX 3503, selected on rifaximin 8X MIC, Colony A): 1 µg/mL | MIC ([3]; B. ovatus MMX 3503, selected on rifaximin 8X MIC, Colony B): 1 µg/mL | MIC ([3]; B. ovatus MMX 3503 Parent): 1 µg/mL | MIC ([3]; B. vulgatus ATCC 8482, selected on ceftriaxone 4X MIC, Colony A): 0.5 µg/mL | MIC ([3]; B. vulgatus ATCC 8482, selected on ceftriaxone 4X MIC, Colony B): 0.5 µg/mL | MIC ([3]; B. vulgatus ATCC 8482, selected on rifaximin 4X MIC, Colony A): 0.5 µg/mL | MIC ([3]; B. vulgatus ATCC 8482, selected on rifaximin 4X MIC, Colony B): 0.25 µg/mL | MIC ([3]; B. vulgatus ATCC 8482, selected on rifaximin 8X MIC, Colony A): 0.5 µg/mL | MIC ([3]; B. vulgatus ATCC 8482, selected on rifaximin 8X MIC, Colony B): 0.5 µg/mL | MIC ([3]; B. vulgatus ATCC 8482 Parent (Table 50)): 0.5 µg/mL | MIC ([3]; B. vulgatus ATCC 8482 Parent (Table 54)): 0.5 µg/mL

— patent US20210386367A1, “DEVICES AND SYSTEMS FOR GASTROINTESTINAL MICROBIOME DETECTION AND MANIPULATION” (Progenity, Inc., priority 2018, published 2021)
